Test results as given in patent US6432405B1, “Method of inhibiting HIV infection with CD44 and anti-CD44 antibodies” (Duke University, priority 1991, dated 2002).
“Also recorded” adds a separate entry of the source.

Key:
[1] = tested on: HIV-1Ba.L; assay: HIV-1 infection of human monocytes in vitro (cytopathology/polykaryon formation, supernatant reverse transcriptase); format: cell-based; details: for effect on HIV-1-induced cytopathology and supernatant RT (in words): human monocytes inoculated with HIV-1Ba.L, three weeks of culture
Excerpt: This aspect of the present invention provides a new method, based on a separate molecular pathway, of blocking HIV infection. The invention is based, at least in part, on Applicants' observation that CD44 (the hyaluronate receptor) facilitates HIV infection/expression in human cells. When this molecule is “blocked”by binding to the anti-CD44 antibody […] or AlG3, there is a 40-80% reduction of HIV infection/expression in normal human monocytes in vitro, as determined by inhibition of monocyte polykaryon formation and expression of viral reverse transcriptase in supernatant medium. […] To determine the importance of other monocyte cellular surface molecules in in vitro infection with HIV-1, the abilities of various murine monoclonal antibodies directed toward different monocyte membrane antigens to influence HIV-1 infection of human monocytes in vitro were determined. Monocytes from normal people were isolated by density gradients, adherence, and washing. Cells were inoculated with HIV-1Ba.L. […] three weeks of culture for reverse transcriptase (RT) activity, and the plates were examined morphologically. Antibodies AlG3 and […]

[2] = tested on: PBMC (T cells); assay: T cell activation assay: CD2 mAb-stimulated PBMC proliferation; format: cell-based, human; details: compared to the results with CD44 liposomes; data not shown
Method: CD44 (A3D8) and control YgGl (P3X63/Ag8) antibodies were conjugated to CNBr-activated SEPHAROSE CL 4B (Pharmacia, Piscataway, N.J.) (3.0 mg IgG/ml gel). HuT 78 T Cell (CD44+) lysate was solubilized from 5×10^9 cells in 50 ml buffer (300 mM NaCl, 10 mM Na2HPO4 pH 7.4, 0.2% NaN3w/v 0.5% NP-40 v/v), 0.01% Tween 80 w/v, 0.2 mM phenylmethylsulfonyl fluoride, and 0.1 mM tosyl L-lysine chloromethyl ketone) (0° C.×30 min), centrifuged (4° C. 3000×g×15 min, 23420 ×g×30 min) filtered, precleared×2 over a P3-SEPHAROSE column, and allowed to bind overnight (4° C.) to A3D8-SEPHAROSE. The column was washed with 5 column volumes equilibration buffer, followed by 5 column volumes of 50 mM Tris, pH 7.4, 0.5% NP-40. NP-40 was exchanged for octyl glucoside (OG) (Sigma, St. Louis, Mo.) by washing with 2 column volumes 50 mM Tris pH 7.4, 1.5% OG w/v. […]
Liposomes were prepared by the method of Mimms et al ((1981) Biochemistry 20:833-840), using 1 μM purified CD44 or control glycophorin protein, 1 nM L-α-dioleoyl lecthin (Avanti Polar Lipids, Birmingham, Ala.), and 240 nM OG. Liposomes were analyzed for content of the appropriate protein using a novel labelling technique and flow cytometry. […] Fluoresceinated liposome-bead conjugates were then analyzed by flow cytometry. […]

## hyaluronic acid [hyaluronate]
[1]
  effect on HIV-1-induced cytopathology and supernatant RT (in words): diminished morphological changes and RT expression
[1]; normal human monocytes in vitro, by inhibition of monocyte polykaryon formation and viral reverse transcriptase in supernatant medium
  reduction/inhibition of HIV infection/expression: up to 85%

## soluble, free CD44 protein: CD44 protein affinity-purified from HuT 78 T cell lysate on A3D8-Sepharose, 80-85 kD
[2]
  effect on CD2 stimulated PBMC cultures (in words): Identical results

## Chondroitin sulfate
[1]
  effect on HIV-1-induced cytopathology and supernatant RT (in words): no effect; also recorded: no or minimal inhibitory activity
